Measurements: article PMC10247784, “Physiological activation of human and mouse bitter taste receptors by bile acids” (Communications Biology, 2023)
Several values for one entry are separate records, joined by “and”; a condition that tells them apart may be missing. Equal entries are not always repeated.

Target: T1, human TAS2R4 (Homo sapiens, UniProt Q9NYW5)
T1 construct: expressed in transfected cells; host or cells: HEK293T-Gα16gust44
T1 sequence (Q9NYW5 1-299): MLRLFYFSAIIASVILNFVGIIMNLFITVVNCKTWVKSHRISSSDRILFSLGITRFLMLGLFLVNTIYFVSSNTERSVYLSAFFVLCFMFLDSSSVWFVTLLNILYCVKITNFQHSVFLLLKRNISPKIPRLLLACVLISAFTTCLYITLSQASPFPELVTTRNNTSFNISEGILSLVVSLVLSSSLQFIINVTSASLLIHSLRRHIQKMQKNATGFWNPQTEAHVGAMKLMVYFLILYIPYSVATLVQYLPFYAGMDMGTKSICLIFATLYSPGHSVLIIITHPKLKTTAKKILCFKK
Assay: Calcium imaging assay (FLIPR), HEK293T-Gα16gust44 cells transfected with human TAS2R4
Format: cell-based
Protocol: This set of bile acids was chosen because of their commercial availability in high purities, their diversity within the class of bile acids and their previous detection and quantitation in human blood. Stock solutions were prepared in DMSO.
As basal growth medium for the HEK293T-Gα16gust44 cell line[17],[59] served Dulbecco’s modified eagle medium (DMEM) (Thermo Fisher Scientific, Darmstadt, Germany) supplemented with 10 % fetal bovine serum (Sigma-Aldrich, Steinheim, Germany), 2 mM L-glutamine (Sigma-Aldrich, Steinheim, Germany), 100 units/ml penicillin (Sigma Aldrich, Steinheim, Germany) and 100 µg/ml streptomycin (Sigma Aldrich, Steinheim, Germany). Growth conditions were 37 °C, 5 % CO2 and saturated air-humidity[60].
HEK293T-Gα16gust44 cells were seeded on poly-D-lysine (10 µg/ml) coated 96-well plates to reach a confluence of 40-60 % the next day. For transient transfection 150 ng of plasmid DNA containing the receptor of interest and 0.3 µl lipofectamine 2000 (Thermo Fisher Scientific, Darmstadt, Germany) per well were used and transfection took place according to the manual of lipofectamine 2000. […] The empty vector DNA (mock) was transfected as negative control[14],[41].
Cells were loaded using the calcium-sensitive fluorescent dye Fluo-4-AM (Abcam, Cambridge, Great Britain) in the presence of 2.5 mM probenecid (Sigma-Aldrich, Steinheim, Germany) the day after transfection[13],[41]. 1 h after loading, cells were washed with C1 buffer using a BioTek Cell Washer, incubated in the dark for half an hour and washed again. For automated agonist application and measurement of fluorescence changes, a FLIPR^TETRA device (Molecular Devices, San José, United States) was used. Viability of cells was tested by application of 100 nM Somatostatin 14 (Bachem, Bubendorf, Switzerland)[42].
Measured data were negative control corrected by subtracting the signal of the mock-transfected cells and exported to Microsoft Excel using the FLIPR software ScreenWorks 4.2. In Microsoft Excel software, standardization of maximum fluorescence intensities to the basal fluorescence and normalization to the buffer-only control was done to calculate the relative fluorescence changes (ΔF/F).
Initial screening experiments performed in duplicate wells were confirmed by at least one replication and representative traces were selected for display. All dose-response relationships were determined by three independent experiments (biological replicates) performed in duplicates (technical replicates). Threshold concentrations, defined as lowest substance concentrations leading to statistically significant elevated fluorescence changes in receptor-transfected cells compared with empty vector-transfected cells, were determined using SigmaPlot with Student’s t-test to evaluate statistical significance (p < 0.01).

SMILES: C[C@H](CCC(=O)NCCS(=O)(=O)O)[C@H]1CC[C@H]2[C@@H]3CC[C@@H]4C[C@H](O)CC[C@]4(C)[C@H]3CC[C@]12C [Taurolithocholic Acid, taurolithocholic acid]
- Efficacy = maximal amplitude (ΔF/F) (TAS2R4, bile acids, mean): 0.1385
- Efficacy (maximal amplitude ΔF/F), individual data points (TAS2R4, bile acids, single replicates, listed as TLCA): 0.1344 and 0.1516 and 0.119 and 0.1444 and 0.143
- RLU, fluorescence trace (Time (s) 0): 0 RLU
- RLU, fluorescence trace (Time (s) 2): -14.866 RLU
- RLU, fluorescence trace (Time (s) 4): -10.9022 RLU
- RLU, fluorescence trace (Time (s) 6): -0.9261 RLU
- RLU, fluorescence trace (Time (s) 8): -7.834 RLU
- RLU, fluorescence trace (Time (s) 12): -12.8379 RLU
- RLU, fluorescence trace (Time (s) 14): 6.067 RLU
- RLU, fluorescence trace (Time (s) 16): 3.969 RLU
- RLU, fluorescence trace (Time (s) 18): -13.8081 RLU
- RLU, fluorescence trace (Time (s) 18.766 (TCA, TLCA: 18.782)): -6.318 RLU
- RLU, fluorescence trace (Time (s) 20.781 (TCA, TLCA: 20.782)): 0.7554 RLU
- RLU, fluorescence trace (Time (s) 22.781 (TCA, TLCA: 22.782)): 22.9324 RLU
- RLU, fluorescence trace (Time (s) 24.781 (TCA, TLCA: 24.782)): 4.9 RLU
- RLU, fluorescence trace (Time (s) 26.781 (TCA, TLCA: 26.782)): 24.977 RLU
- RLU, fluorescence trace (Time (s) 28.781 (TCA, TLCA: 28.782)): 22.993 RLU
- RLU, fluorescence trace (Time (s) 30.781 (TCA, TLCA: 30.782)): 49.0114 RLU
- RLU, fluorescence trace (Time (s) 32.781 (TCA, TLCA: 32.782)): 81.1426 RLU
- RLU, fluorescence trace (Time (s) 34.781 (TCA, TLCA: 34.782)): 109.126 RLU
- RLU, fluorescence trace (Time (s) 36.781 (TCA, TLCA: 36.782)): 126.942 RLU
- RLU, fluorescence trace (Time (s) 38.781 (TCA, TLCA: 38.782)): 159.412 RLU
- RLU, fluorescence trace (Time (s) 40.781 (TCA, TLCA: 40.782)): 175 RLU
- RLU, fluorescence trace (Time (s) 42.781 (TCA, TLCA: 42.782)): 193.772 RLU
- RLU, fluorescence trace (Time (s) 44.781 (TCA, TLCA: 44.782)): 218.413 RLU
- RLU, fluorescence trace (Time (s) 46.781 (TCA, TLCA: 46.782)): 198.067 RLU
- RLU, fluorescence trace (Time (s) 48.781 (TCA, TLCA: 48.782)): 224.737 RLU
- RLU, fluorescence trace (Time (s) 50.781 (TCA, TLCA: 50.782)): 242.508 RLU
- RLU, fluorescence trace (Time (s) 52.781 (TCA, TLCA: 52.782)): 256.995 RLU
- RLU, fluorescence trace (Time (s) 54.781 (TCA, TLCA: 54.782)): 227.079 RLU
- RLU, fluorescence trace (Time (s) 56.781 (TCA, TLCA: 56.782)): 225.961 RLU
- RLU, fluorescence trace (Time (s) 58.781 (TCA, TLCA: 58.782)): 271.056 RLU
- RLU, fluorescence trace (Time (s) 60.781 (TCA, TLCA: 60.782)): 261.6 RLU
- RLU, fluorescence trace (Time (s) 62.781 (TCA, TLCA: 62.782)): 251.574 RLU
- RLU, fluorescence trace (Time (s) 64.781 (TCA, TLCA: 64.782)): 292.569 RLU
- RLU, fluorescence trace (Time (s) 66.781 (TCA, TLCA: 66.782)): 280.396 RLU
- RLU, fluorescence trace (Time (s) 68.781 (TCA, TLCA: 68.782)): 265.03 RLU
- RLU, fluorescence trace (Time (s) 70.781 (TCA, TLCA: 70.782)): 284.572 RLU
- RLU, fluorescence trace (Time (s) 72.781 (TCA, TLCA: 72.782)): 284.878 RLU
- RLU, fluorescence trace (Time (s) 74.781 (TCA, TLCA: 74.782)): 290.176 RLU
- RLU, fluorescence trace (Time (s) 76.781 (TCA, TLCA: 76.782)): 292.885 RLU
- RLU, fluorescence trace (Time (s) 78.781 (TCA, TLCA: 78.782)): 302.496 RLU
- RLU, fluorescence trace (Time (s) 80.781 (TCA, TLCA: 80.782)): 299.577 RLU
- RLU, fluorescence trace (Time (s) 82.781 (TCA, TLCA: 82.782)): 289.637 RLU
- RLU, fluorescence trace (Time (s) 84.781 (TCA, TLCA: 84.782)): 284.791 RLU
- RLU, fluorescence trace (Time (s) 86.781 (TCA, TLCA: 86.782)): 284.228 RLU
- RLU, fluorescence trace (Time (s) 88.781 (TCA, TLCA: 88.782)): 289.096 RLU
- RLU, fluorescence trace (Time (s) 90.781 (TCA, TLCA: 90.782)): 288.658 RLU
- RLU, fluorescence trace (Time (s) 92.781 (TCA, TLCA: 92.782)): 295.597 RLU
- RLU, fluorescence trace (Time (s) 94.781 (TCA, TLCA: 94.782)): 300.252 RLU
- RLU, fluorescence trace (Time (s) 96.781 (TCA, TLCA: 96.782)): 303.134 RLU
- RLU, fluorescence trace (Time (s) 98.781 (TCA, TLCA: 98.782)): 268.467 RLU
- RLU, fluorescence trace (Time (s) 100.781 (TCA, TLCA: 100.782)): 282.827 RLU
- RLU, fluorescence trace (Time (s) 102.781 (TCA, TLCA: 102.782)): 280.287 RLU
- RLU, fluorescence trace (Time (s) 104.781 (TCA, TLCA: 104.782)): 297.596 RLU
- RLU, fluorescence trace (Time (s) 106.781 (TCA, TLCA: 106.782)): 261.785 RLU
- RLU, fluorescence trace (Time (s) 108.781 (TCA, TLCA: 108.782)): 279.776 RLU
- RLU, fluorescence trace (Time (s) 110.781 (TCA, TLCA: 110.782)): 253.834 RLU
- RLU, fluorescence trace (Time (s) 112.781 (TCA, TLCA: 112.782)): 272.21 RLU
- RLU, fluorescence trace (Time (s) 114.781 (TCA, TLCA: 114.782)): 268.219 RLU
- RLU, fluorescence trace (Time (s) 116.781 (TCA, TLCA: 116.782)): 268.998 RLU
- RLU, fluorescence trace (Time (s) 118.781 (TCA, TLCA: 118.782)): 262.891 RLU
- RLU, fluorescence trace (Time (s) 120.781 (TCA, TLCA: 120.782)): 267.293 RLU
- RLU, fluorescence trace (Time (s) 122.781 (TCA, TLCA: 122.782)): 280.896 RLU
- RLU, fluorescence trace (Time (s) 124.781 (TCA, TLCA: 124.782)): 273.898 RLU
- RLU, fluorescence trace (Time (s) 126.781 (TCA, TLCA: 126.782)): 249.374 RLU
- RLU, fluorescence trace (Time (s) 128.781 (TCA, TLCA: 128.782)): 270.269 RLU
- RLU, fluorescence trace (Time (s) 130.781 (TCA, TLCA: 130.782)): 267.674 RLU
- RLU, fluorescence trace (Time (s) 132.781 (TCA, TLCA: 132.782)): 259.914 RLU
- RLU, fluorescence trace (Time (s) 134.781 (TCA, TLCA: 134.782)): 243.112 RLU
- RLU, fluorescence trace (Time (s) 136.781 (TCA, TLCA: 136.782)): 250.545 RLU
- RLU, fluorescence trace (Time (s) 137.547): 251.257 RLU
- RLU, fluorescence trace (Time (s) 143.547): 215.734 RLU
- RLU, fluorescence trace (Time (s) 149.547): 237.866 RLU
- RLU, fluorescence trace (Time (s) 155.547): 193.672 RLU
- RLU, fluorescence trace (Time (s) 161.547): 207.578 RLU
- RLU, fluorescence trace (Time (s) 167.547): 205.902 RLU
- RLU, fluorescence trace (Time (s) 173.547): 204.036 RLU
- RLU, fluorescence trace (Time (s) 179.547): 180.442 RLU
- RLU, fluorescence trace (Time (s) 185.547): 185.763 RLU
- RLU, fluorescence trace (Time (s) 191.547): 137.563 RLU
- RLU, fluorescence trace (Time (s) 197.547): 147.254 RLU
- RLU, fluorescence trace (Time (s) 203.547): 133.472 RLU
- RLU, fluorescence trace (Time (s) 209.547): 90.5191 RLU
- RLU, fluorescence trace (Time (s) 215.547): 65.3811 RLU
- RLU, fluorescence trace (Time (s) 221.547): 77.9879 RLU
- RLU, fluorescence trace (Time (s) 227.547): 99.7214 RLU
- RLU, fluorescence trace (Time (s) 233.547): 126.783 RLU
- RLU, fluorescence trace (Time (s) 239.547): 132.165 RLU
- RLU, fluorescence trace (Time (s) 245.547): 104.275 RLU
- RLU, fluorescence trace (Time (s) 293.547): 136.191 RLU
- RLU, fluorescence trace (Time (s) 299.547): 118.82 RLU
- RLU, fluorescence trace (Time (s) 305.547): 140.647 RLU
- RLU, fluorescence trace (Time (s) 311.547): 122.148 RLU
- RLU, fluorescence trace (Time (s) 317.547): 88.8315 RLU
- RLU, fluorescence trace (Time (s) 323.547): 111.642 RLU
- RLU, fluorescence trace (Time (s) 329.547): 124.756 RLU
- RLU, fluorescence trace (Time (s) 335.547): 109.477 RLU
- RLU, fluorescence trace (Time (s) 341.547): 98.825 RLU
- RLU, fluorescence trace (Time (s) 347.547): 92.346 RLU
- RLU, fluorescence trace (Time (s) 353.547): 124.878 RLU
- RLU, fluorescence trace (Time (s) 359.547): 119.545 RLU
- Activation threshold concentration TAS2R4 (lowest concentration with significantly increased fluorescence vs empty vector (p < 0.01)): 1 µM
